In patent publication US20260008783A1, “MODULATORS OF FSHR AND USES THEREOF” (Celmatix Inc., priority 2022, published 2026):

Molecular target: T1, Follicle Stimulating Hormone Receptor (FSHR) (Homo sapiens, UniProt P23945)
T1 construct: HA (N); expressed in transfected cells; host or cells: CHO-K1, transient transfection, pHM6 vector (CMV promoter)
T1 sequence (P23945 18-695): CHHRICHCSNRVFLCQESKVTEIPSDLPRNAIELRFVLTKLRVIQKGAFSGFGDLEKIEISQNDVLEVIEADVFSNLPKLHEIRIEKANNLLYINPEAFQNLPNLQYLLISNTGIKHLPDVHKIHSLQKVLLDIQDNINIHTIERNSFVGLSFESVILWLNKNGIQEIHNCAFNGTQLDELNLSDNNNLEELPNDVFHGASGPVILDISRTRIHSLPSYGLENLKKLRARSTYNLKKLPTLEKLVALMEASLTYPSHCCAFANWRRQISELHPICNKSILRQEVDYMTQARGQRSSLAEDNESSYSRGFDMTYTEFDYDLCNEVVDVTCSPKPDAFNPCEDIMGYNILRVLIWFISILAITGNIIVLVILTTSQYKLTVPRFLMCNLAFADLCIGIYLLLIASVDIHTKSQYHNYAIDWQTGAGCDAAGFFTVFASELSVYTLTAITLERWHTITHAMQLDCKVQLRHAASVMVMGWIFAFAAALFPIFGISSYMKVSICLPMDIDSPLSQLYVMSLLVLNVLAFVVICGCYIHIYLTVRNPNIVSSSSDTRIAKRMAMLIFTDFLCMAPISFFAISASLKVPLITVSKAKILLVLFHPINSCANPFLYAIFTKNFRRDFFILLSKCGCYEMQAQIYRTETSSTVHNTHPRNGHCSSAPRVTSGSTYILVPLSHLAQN
Assay: HTRF cAMP agonist assay, FSHR, transiently transfected CHO-K1 cells
Assay type: cell-based
Settings: CHO-K1 cells transiently expressing human FSHR, read-out: IC50 FSHR LANCE CAMP
Excerpt: Example 17. HTRF cAMP Agonist Assay Protocol (for FSHR, TSHR, LHCGR)
Mammalian expression vectors designed to express either Follicle Stimulating Hormone Receptor (FSHR), Thyroid Stimulating Hormone Receptor (TSHR), or Luteinizing Hormone/Choriogonadotropin Receptor (LHCGR), were generated with an HA-tag on the N-terminus. All constructs were expressed under a human cytomegalovirus (CMV) immediate early enhancer and promoter using the pHM6 expression vector. The protein coding region was confirmed by sequence analysis to be in-frame and of the expected sequence, matching the following accession numbers: FSHR NM_000145, TSHR NM_000369, and LHCGR NM_000233.
HTRF cAMP assays were performed using Chinese Hamster Ovary (CHO-K1) cell lines transiently expressing human FSH, TSH, and LHCG receptors. 48 hours before the assay, cells were washed with PBS and then dissociated from tissue culture flasks with 0.25% trypsin. Dissociated cells were quenched in full media (F-12K Medium Corning REF #10-025-CV, 10% Avantor Seradigm FB Essence Cat #10803-034, 1% Penicillin/Streptomycin Cytiva HyClone Cat #SV30010) and then collected by centrifugation at 290×g for 5 min. Cells were resuspended in full media and dispensed into 150 mm cell culture dishes (Nest Scientific Cat #715001), at 2.3×10^6 cells/flask. 7 hours later, cells were transfected using Lipofectamine transfection reagent (Invitrogen Cat #18324020). Briefly, 60 μL of lipofectamine was dispensed into 2 mL of Opti-MEM (Gibco Cat #31985070) and incubated for 5 minutes at room temperature. Then, the mixture was added onto […] of DNA and incubated for another 20 minutes at room temperature. Cells were washed with warm (37° C.) PBS. 17.5 mL of Opti-MEM was dispensed onto the cells, followed by addition of the Opti-MEM/lipofectamine/DNA mixture. Cells were incubated overnight in a 37° C., 5% CO2 cell incubator. 17-19 hours later, Opti-MEM was aspirated off the cells and replaced with full media. Cells were incubated for another 24 hours in a 37° C., 5% CO2 cell incubator.
On the day of the assay, cells were washed with PBS and then dissociated from tissue culture flasks with 0.25% trypsin. Dissociated cells were quenched in full media and then collected by centrifugation at 290×g for 5 min. Cells were resuspended in PBS^+/+ (Corning REF #20-030-CV) to a concentration of 2×10^5 cells/mL. 10 μL/well of cells (2,000 cells/well) were dispensed into 384-well Corning plates (REF #3825), in triplicate. Cells were incubated at room temperature for 2 hours.
Example FSHR Modulator compounds were diluted in assay buffer (PBS^+/+, 0.05% BSA Sigma-Aldrich A3059, 500 μM IBMX Sigma-Aldrich 15879) to 3.5× the final assay concentration. 4 μL of test agonist was added to the cells and incubated for 1 hour at room temperature. 10 μL of cAMP detection reagents (LANCE Ultra cAMP Detection Kit PerkinElmer TRF0264) were dispensed onto the cells and plates were incubated for 2 hours at room temperature (cAMP detection reagents were made according to the PerkinElmer kit protocol). Plates were read on an Envision plate reader following PerkinElmer guidelines.
Raw data for all assays was transmitted directly from plate readers into a database for processing. All assay plates contained both positive and negative control wells to allow for data normalization and scaling. In agonist assays, negative control wells contained assay buffer and positive control wells contained […] positive control (10 nM Follicle Stimulating Hormone Sigma-Aldrich F4021, 50 nM Thyroid Stimulating Hormone Sigma-Aldrich 869006, 50 nM Luteinizing Hormone MyBioSource MBS5308806, for their respective receptors). All control wells contained DMSO at a final assay concentration that matched the test compound wells. […]
Percent control data were analyzed by non-linear regression with a sigmoidal dose response algorithm in the database to yield potency and efficacy data.

## COc1cc2c(cc1-c1cncc(C(N)=O)c1)-c1c(c(C(=O)N(C)C(C)(C)C)nn1-c1ccsc1)C2 [Compound 5-04, N-tert-butyl-7-(5-carbamoyl-3-pyridyl)-6-methoxy-N-methyl-1-(3-thienyl)-4H-indeno[1,2-c]pyrazole-3-carboxamide]
  IC50: 8.2 nM

## COc1cc2c(cc1-c1ccn(C)n1)-c1c(c(C(=O)N3CCOCC3(C)C)nn1-c1cc(Cl)cc(Cl)c1)C2 [Compound 5-05, [1-(3,5-dichlorophenyl)-6-methoxy-7-(1-methylpyrazol-3-yl)-4H-indeno[1,2-c]pyrazol-3-yl]-(3,3-dimethylmorpholin-4-yl)methanone]
  IC50: 559 nM

## COc1cc2c(cc1-c1ccn(C)n1)-c1c(c(C(=O)N(C)C(C)(C)C)nn1-c1cc(Cl)cc(Cl)c1)C2 [Compound 5-06, N-tert-butyl-1-(3,5-dichlorophenyl)-6-methoxy-N-methyl-7-(1-methylpyrazol-3-yl)-4H-indeno[1,2-c]pyrazole-3-carboxamide]
  IC50: 494 nM

## COc1cc2c(cc1-c1ccn(C)n1)-c1c(c(C(=O)N3CCOCC3(C)C)nn1-c1ccsc1)C2 [Compound 5-07, (3,3-dimethylmorpholin-4-yl)-[6-methoxy-7-(1-methylpyrazol-3-yl)-1-(3-thienyl)-4H-indeno[1,2-c]pyrazol-3-yl]methanone]
  IC50: 115 nM

## COc1cc2c(cc1-c1ccn(C)n1)-c1c(c(C(=O)N(C)C(C)(C)C)nn1-c1ccsc1)C2 [Compound 5-08, N-tert-butyl-6-methoxy-N-methyl-7-(1-methylpyrazol-3-yl)-1-(3-thienyl)-4H-indeno[1,2-c]pyrazole-3-carboxamide]
  IC50: 195 nM

## COc1cc2c(cc1Br)-c1c(c(C(=O)N3CCOCC3(C)C)nn1-c1cc(Cl)cc(Cl)c1)CC2 [Compound 6-01A, [8-bromo-1-(3,5-dichlorophenyl)-7-methoxy-4,5-dihydrobenzo[g]indazol-3-yl]-(3,3-dimethylmorpholin-4-yl)methanone]
  IC50: 1090 nM

## COc1cc2c(cc1-c1cncc(C#N)c1)-c1c(c(C(=O)N3CCOCC3(C)C)nn1-c1cc(Cl)cc(Cl)c1)CC2 [Compound 6-01B, 5-[1-(3,5-dichlorophenyl)-3-(3,3-dimethylmorpholine-4-carbonyl)-7-methoxy-4,5-dihydrobenzo[g]indazol-8-yl]pyridine-3-carbonitrile]
  IC50: 33.3 nM

## COc1cc2c(cc1-c1cncc(C(N)=O)c1)-c1c(c(C(=O)N(C)C(C)(C)C)nn1-c1cc(Cl)cc(Cl)c1)CC2 [Compound 6-02, N-tert-butyl-8-(5-carbamoyl-3-pyridyl)-1-(3,5-dichlorophenyl)-7-methoxy-N-methyl-4,5-dihydrobenzo[g]indazole-3-carboxamide]
  IC50: 8.53 nM

## COc1cc2c(cc1Br)-c1c(c(C(=O)N(C)C(C)(C)C)nn1-c1cc(Cl)cc(Cl)c1)CC2 [Compound 6-02A, 8-bromo-N-tert-butyl-1-(3,5-dichlorophenyl)-7-methoxy-N-methyl-4,5-dihydrobenzo[g]indazole-3-carboxamide]
  IC50: 861 nM

## COc1cc2c(cc1-c1cncc(C#N)c1)-c1c(c(C(=O)N(C)C(C)(C)C)nn1-c1cc(Cl)cc(Cl)c1)CC2 [Compound 6-02B, N-tert-butyl-8-(5-cyano-3-pyridyl)-1-(3,5-dichlorophenyl)-7-methoxy-N-methyl-4,5-dihydrobenzo[g]indazole-3-carboxamide]
  IC50: 31.9 nM

## COc1cc2c(cc1-c1ccn(C)n1)-c1c(c(C(=O)N3CCOCC3(C)C)nn1-c1cc(Cl)cc(Cl)c1)CC2 [Compound 6-03, [1-(3,5-dichlorophenyl)-7-methoxy-8-(1-methylpyrazol-3-yl)-4,5-dihydrobenzo[g]indazol-3-yl]-(3,3-dimethylmorpholin-4-yl)methanone]
  IC50: 163 nM

## COc1cc2c(cc1-c1ccn(C)n1)-c1c(c(C(=O)N(C)C(C)(C)C)nn1-c1cc(Cl)cc(Cl)c1)CC2 [Compound 6-04, N-tert-butyl-1-(3,5-dichlorophenyl)-7-methoxy-N-methyl-8-(1-methylpyrazol-3-yl)-4,5-dihydrobenzo[g]indazole-3-carboxamide]
  IC50: 180 nM

## COc1cc2ccc3c(C(=O)N4CCOCC4(C)C)nn(-c4cc(Cl)cc(Cl)c4)c3c2cc1-c1cncc(C(N)=O)c1 [Compound 6-05, 5-[1-(3,5-dichlorophenyl)-3-(3,3-dimethylmorpholine-4-carbonyl)-7-methoxy-benzo[g]indazol-8-yl]pyridine-3-carboxamide]
  IC50: 5.24 nM

## COc1cc2ccc3c(C(=O)N(C)C(C)(C)C)nn(-c4cc(Cl)cc(Cl)c4)c3c2cc1-c1cncc(C(N)=O)c1 [Compound 6-06, N-tert-butyl-8-(5-carbamoyl-3-pyridyl)-1-(3,5-dichlorophenyl)-7-methoxy-N-methyl-benzo[g]indazole-3-carboxamide]
  IC50: 13.6 nM

## COc1cc2ccc3c(C(=O)N4CCOCC4(C)C)nn(-c4cc(Cl)cc(Cl)c4)c3c2cc1-c1ccn(C)n1 [Compound 6-07, [1-(3,5-dichlorophenyl)-7-methoxy-8-(1-methylpyrazol-3-yl)benzo[g]indazol-3-yl]-(3,3-dimethylmorpholin-4-yl)methanone]
  IC50: 83.2 nM

## COc1cc2ccc3c(C(=O)N(C)C(C)(C)C)nn(-c4cc(Cl)cc(Cl)c4)c3c2cc1-c1ccn(C)n1 [Compound 6-08, N-tert-butyl-1-(3,5-dichlorophenyl)-7-methoxy-N-methyl-8-(1-methylpyrazol-3-yl)benzo[g]indazole-3-carboxamide]
  IC50: 78.4 nM

## COc1cc2c(cc1-c1cncc(C(N)=O)c1)-c1c(c(C(=O)N3CCNCC3C)nn1-c1cc(Cl)cc(Cl)c1)CC2 (stereo not shown) [Compound 8-01, 5-[1-(3,5-dichlorophenyl)-7-methoxy-3-(2-methylpiperazine-1-carbonyl)-4,5-dihydrobenzo[g]indazol-8-yl]pyridine-3-carboxamide]
  IC50: 20.8 nM

## COc1cc2c(cc1-c1cncc(C(N)=O)c1)-c1c(c(C(=O)N3CCNCC3(C)C)nn1-c1cc(Cl)cc(Cl)c1)CC2 [Compound 8-02]
  IC50: 30.5 nM

## COc1cc2c(cc1-c1cncc(C(N)=O)c1)-c1c(c(C(=O)N3CCCNCC3)nn1-c1cc(Cl)cc(Cl)c1)CC2 [Compound 8-03, 5-[3-(1,4-diazepane-1-carbonyl)-1-(3,5-dichlorophenyl)-7-methoxy-4,5-dihydrobenzo[g]indazol-8-yl]pyridine-3-carboxamide]
  IC50: 449 nM
